From patent US20240393292A1, “ALLERGY ANTIGEN AND EPITOPE THEREOF” (HOYU CO., LTD., priority 2019, published 2024)
One block for each substance: values may come before it.

System: IgE antibodies from patients
Assay: Wheat epitope mapping (2): overlapping 10-amino-acid peptide fragments shifted by one amino acid
Assay type: binding, human
Settings: partial sequence
Procedure, shortened: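 Residual binding was banded as <30% none, 30–<50% poor, 50–<70% somewhat poor and ≥70% retained, relative to the parent overlapping sequence set to 100%. Values were chemiluminescent IgE signals from patient sera after subtracting secondary-antibody-only controls. The peptides were spot-synthesised 10-mers shifted by one amino acid.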

[1] = serum of patient G2 (adult, general immediate type allergy to wheat)
[2] = serum of patient G7 (adult, general immediate type allergy to wheat)
[3] = serum of patient P53 (child, general immediate type allergy to wheat)
[4] = serum of patient P54 (child, general immediate type allergy to wheat)
[5] = serum of patient G3 (adult, general immediate type allergy to wheat)
[6] = serum of patient G6 (adult, general immediate type allergy to wheat)
[7] = serum of patient G9 (adult, general immediate type allergy to wheat)

- Epitope sequence binding to IgE antibody, rank of the sequence (serum of patient P35 (WDEIA)): Key
Substance: 2593 (QLVQ; REGION 1..4: note = epitope) [compound 2593]

- Epitope sequence binding to IgE antibody, rank of the sequence (serum of patient P36 (WDEIA)): Preferably
Substance: 2594 (QLVQQL; REGION 1..6: note = epitope) [compound 2594]

- Epitope sequence binding to IgE antibody, rank of the sequence (serum of patient P36 (WDEIA)): Key
Substance: 2595 (VQQL; REGION 1..4: note = epitope) [compound 2595]

- Epitope sequence binding to IgE antibody, rank of the sequence [3]: Key
Substance: 2597 (QQSTYQLV; REGION 1..8: note = epitope) [compound 2597]

- Epitope sequence binding to IgE antibody, rank of the sequence [3]: Preferably
Substance: 2599 (QLVQQLCC; REGION 1..8: note = epitope) [compound 2599]

- Epitope sequence binding to IgE antibody, rank of the sequence [3]: Key
Substance: 2600 (QQLC; REGION 1..4: note = epitope) [compound 2600]

- Epitope sequence binding to IgE antibody, rank of the sequence [3]: Preferably
Substance: 2601 (QQSTYQLVQ; REGION 1..9: note = epitope) [compound 2601]

- Epitope sequence binding to IgE antibody, rank of the sequence [4]: Key
Substance: 2602 (QQSTYQLV; REGION 1..8: note = epitope) [compound 2602]

- Epitope sequence binding to IgE antibody, rank of the sequence [4]: Key
Substance: 2603 (QLVQQLC; REGION 1..7: note = epitope) [compound 2603]

- Epitope sequence binding to IgE antibody, rank of the sequence [4]: Preferably
Substance: 2604 (YQLVQ; REGION 1..5: note = epitope) [compound 2604]

- Epitope sequence binding to IgE antibody, rank of the sequence [5]: Key
Substance: 2605 (QLVQ; REGION 1..4: note = epitope) [compound 2605]

- Epitope sequence binding to IgE antibody, rank of the sequence (serum of patient G5 (adult, general immediate type allergy to wheat)): Key
Substance: 2606 (QLVQQL; REGION 1..6: note = epitope) [compound 2606]

- Epitope sequence binding to IgE antibody, rank of the sequence [6]: Key
Substance: 2607 (LQQSTYQLVQ; REGION 1..10: note = epitope) [compound 2607]

- Epitope sequence binding to IgE antibody, rank of the sequence [6]: Key
Substance: 2608 (QLVQQL; REGION 1..6: note = epitope) [compound 2608]

- Epitope sequence binding to IgE antibody, rank of the sequence [2]: Key
Substance: 2609 (QLVQQLCC; REGION 1..8: note = epitope) [compound 2609]

- Epitope sequence binding to IgE antibody, rank of the sequence [7]: Key
Substance: 2610 (LQQSTYQLV; REGION 1..9: note = epitope) [compound 2610]

- Epitope sequence binding to IgE antibody, rank of the sequence [7]: Key
Substance: 2611 (QSTYQLVQQL; REGION 1..10: note = epitope) [compound 2611]

- Epitope sequence binding to IgE antibody, rank of the sequence [7]: Key
Substance: 2612 (QLVQQLCC; REGION 1..8: note = epitope) [compound 2612]

- Epitope sequence binding to IgE antibody, rank of the sequence (serum of patient P2 (WDEIA)): Key
Substance: 2614 (AKPLL; REGION 1..5: note = epitope) [compound 2614]

- Epitope sequence binding to IgE antibody, rank of the sequence (serum of patient P2 (WDEIA)): Key
Substance: 2615 (SLSKRV; REGION 1..6: note = epitope) [compound 2615]

- Epitope sequence binding to IgE antibody, rank of the sequence (serum of patient P24 (WDEIA)): Key
Substance: 2616 (AKPLL; REGION 1..5: note = epitope) [compound 2616]

- Epitope sequence binding to IgE antibody, rank of the sequence (serum of patient P24 (WDEIA)): Key
Substance: 2617 (SKRV; REGION 1..4: note = epitope) [compound 2617]

- Epitope sequence binding to IgE antibody, rank of the sequence (serum of patient P32 (WDEIA)): Key
Substance: 2619 (LASLSK; REGION 1..6: note = epitope) [compound 2619]

- Epitope sequence binding to IgE antibody, rank of the sequence [1]: Key
Substance: 2621 (LLAS; REGION 1..4: note = epitope) [compound 2621]

- Epitope sequence binding to IgE antibody, rank of the sequence [5]: Preferably
Substance: 2623 (SAKPLL; REGION 1..6: note = epitope) [compound 2623]

- Epitope sequence binding to IgE antibody, rank of the sequence [5]: Key
Substance: 2624 (AKPLL; REGION 1..5: note = epitope) [compound 2624]

The next lines start with the substance.

Substance: 2528 (SSQVSF; REGION 1..6: note = epitope) [compound 2528]
- Epitope sequence binding to IgE antibody, rank of the sequence [1]: Key

Substance: 2530 (FQPSQLNP; REGION 1..8: note = epitope) [compound 2530]
- Epitope sequence binding to IgE antibody, rank of the sequence [1]: Preferably

Substance: 2531 (FQPSQLN; REGION 1..7: note = epitope) [compound 2531]
- Epitope sequence binding to IgE antibody, rank of the sequence [1]: Key

Substance: 2541 (SSQVSFQPSQ; REGION 1..10: note = epitope) [compound 2541]
- Epitope sequence binding to IgE antibody, rank of the sequence [2]: Preferably

Substance: 2542 (SSQVSF; REGION 1..6: note = epitope) [compound 2542]
- Epitope sequence binding to IgE antibody, rank of the sequence [2]: Key

Substance: 2543 (VSFQPSQLN; REGION 1..9: note = epitope) [compound 2543]
- Epitope sequence binding to IgE antibody, rank of the sequence [2]: Preferably

Substance: 2547 (QSTYQLVQQL; REGION 1..10: note = epitope) [compound 2547]
- Epitope sequence binding to IgE antibody, rank of the sequence (serum of patient P2 (WDEIA)): Preferably

Substance: 2548 (QSTY; REGION 1..4: note = epitope) [compound 2548]
- Epitope sequence binding to IgE antibody, rank of the sequence (serum of patient P2 (WDEIA)): Key

Substance: 2549 (QLVQQLCC; REGION 1..8: note = epitope) [compound 2549]
- Epitope sequence binding to IgE antibody, rank of the sequence (serum of patient P2 (WDEIA)): Key

Substance: 2552 (QLVQQLCC; REGION 1..8: note = epitope) [compound 2552]
- Epitope sequence binding to IgE antibody, rank of the sequence (serum of patient P7 (WDEIA)): Preferably

Substance: 2553 (QLVQ; REGION 1..4: note = epitope) [compound 2553]
- Epitope sequence binding to IgE antibody, rank of the sequence (serum of patient P7 (WDEIA)): Key

Substance: 2554 (LQQSTYQLVQ; REGION 1..10: note = epitope) [compound 2554]
- Epitope sequence binding to IgE antibody, rank of the sequence (serum of patient P20 (WDEIA)): Key

Substance: 2555 (QSTYQLVQQL; REGION 1..10: note = epitope) [compound 2555]
- Epitope sequence binding to IgE antibody, rank of the sequence (serum of patient P20 (WDEIA)): Key

Substance: 2556 (QLVQQLCC; REGION 1..8: note = epitope) [compound 2556]
- Epitope sequence binding to IgE antibody, rank of the sequence (serum of patient P20 (WDEIA)): Key

Substance: 2558 (QSTYQLVQQL; REGION 1..10: note = epitope) [compound 2558]
- Epitope sequence binding to IgE antibody, rank of the sequence (serum of patient P21 (WDEIA)): Key

Substance: 2559 (LVQQLCC; REGION 1..7: note = epitope) [compound 2559]
- Epitope sequence binding to IgE antibody, rank of the sequence (serum of patient P21 (WDEIA)): Key

Substance: 2560 (LQQSTYQLVQ; REGION 1..10: note = epitope) [compound 2560]
- Epitope sequence binding to IgE antibody, rank of the sequence (serum of patient P22 (WDEIA)): Key

Substance: 2561 (LVQQL; REGION 1..5: note = epitope) [compound 2561]
- Epitope sequence binding to IgE antibody, rank of the sequence (serum of patient P22 (WDEIA)): Key

Substance: 2563 (QLVQQLCC; REGION 1..8: note = epitope) [compound 2563]
- Epitope sequence binding to IgE antibody, rank of the sequence (serum of patient P24 (WDEIA)): Preferably

Substance: 2564 (QLVQQ; REGION 1..5: note = epitope) [compound 2564]
- Epitope sequence binding to IgE antibody, rank of the sequence (serum of patient P24 (WDEIA)): Key

Substance: 2565 (QSTYQLVQ; REGION 1..8: note = epitope) [compound 2565]
- Epitope sequence binding to IgE antibody, rank of the sequence (serum of patient P25 (WDEIA)): Key

Substance: 2566 (YQLVQQLCC; REGION 1..9: note = epitope) [compound 2566]
- Epitope sequence binding to IgE antibody, rank of the sequence (serum of patient P25 (WDEIA)): Key

Substance: 2567 (QLVQQ; REGION 1..5: note = epitope) [compound 2567]
- Epitope sequence binding to IgE antibody, rank of the sequence (serum of patient P26 (WDEIA)): Key

Substance: 2569 (QLVQQL; REGION 1..6: note = epitope) [compound 2569]
- Epitope sequence binding to IgE antibody, rank of the sequence (serum of patient P27 (WDEIA)): Preferably

Substance: 2570 (QLVQQ; REGION 1..5: note = epitope) [compound 2570]
- Epitope sequence binding to IgE antibody, rank of the sequence (serum of patient P27 (WDEIA)): Key

Substance: 2574 (QLVQQL; REGION 1..6: note = epitope) [compound 2574]
- Epitope sequence binding to IgE antibody, rank of the sequence (serum of patient P28 (WDEIA)): Preferably

Substance: 2575 (QLVQ; REGION 1..4: note = epitope) [compound 2575]
- Epitope sequence binding to IgE antibody, rank of the sequence (serum of patient P28 (WDEIA)): Key

Substance: 2578 (YQLVQQL; REGION 1..7: note = epitope) [compound 2578]
- Epitope sequence binding to IgE antibody, rank of the sequence (serum of patient P29 (WDEIA)): Key

Substance: 2579 (YQLVQQ; REGION 1..6: note = epitope) [compound 2579]
- Epitope sequence binding to IgE antibody, rank of the sequence (serum of patient P30 (WDEIA)): Key

Substance: 2583 (QLVQQ; REGION 1..5: note = epitope) [compound 2583]
- Epitope sequence binding to IgE antibody, rank of the sequence (serum of patient P31 (WDEIA)): Preferably

Substance: 2584 (QLVQ; REGION 1..4: note = epitope) [compound 2584]
- Epitope sequence binding to IgE antibody, rank of the sequence (serum of patient P31 (WDEIA)): Key

Substance: 2585 (LQQSTYQLVQ; REGION 1..10: note = epitope) [compound 2585]
- Epitope sequence binding to IgE antibody, rank of the sequence (serum of patient P32 (WDEIA)): Preferably

Substance: 2586 (LQQSTYQL; REGION 1..8: note = epitope) [compound 2586]
- Epitope sequence binding to IgE antibody, rank of the sequence (serum of patient P32 (WDEIA)): Key

Substance: 2587 (QLVQQLCC; REGION 1..8: note = epitope) [compound 2587]
- Epitope sequence binding to IgE antibody, rank of the sequence (serum of patient P32 (WDEIA)): Preferably

Substance: 2588 (QQLC; REGION 1..4: note = epitope) [compound 2588]
- Epitope sequence binding to IgE antibody, rank of the sequence (serum of patient P32 (WDEIA)): Key

Substance: 2590 (QLVQQLCC; REGION 1..8: note = epitope) [compound 2590]
- Epitope sequence binding to IgE antibody, rank of the sequence (serum of patient P34 (WDEIA)): Preferably

Substance: 2591 (QLVQQL; REGION 1..6: note = epitope) [compound 2591]
- Epitope sequence binding to IgE antibody, rank of the sequence (serum of patient P34 (WDEIA)): Key

Substance: 2592 (YQLVQQ; REGION 1..6: note = epitope) [compound 2592]
- Epitope sequence binding to IgE antibody, rank of the sequence (serum of patient P35 (WDEIA)): Preferably
